Molecular target: T1, GID4 (Uniprot ID: Q81VV7, residues 124-289) (Homo sapiens, UniProt Q8IVV7)
T1 construct: GID4 (Uniprot ID: Q81VV7, residues 124-289)
T1 sequence (Q8IVV7 124-289): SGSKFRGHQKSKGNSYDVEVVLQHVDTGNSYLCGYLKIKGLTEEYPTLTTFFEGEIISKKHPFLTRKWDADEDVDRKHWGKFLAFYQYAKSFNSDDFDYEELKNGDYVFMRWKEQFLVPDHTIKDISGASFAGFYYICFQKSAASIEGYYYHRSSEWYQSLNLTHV
Assay: GID4 competitive binding assay (AlphaScreen, GID4/degron peptide PGLW)
Settings: 24 nM GID4, 48 nM biotinylated degron peptide PGLW, 4° C., read-out: IC50 (Inhibition of GID4/Degron binding by test compounds)
Description: GID4 Competitive Binding Assay
GID4 binding affinity of compounds disclosed herein was measured by monitoring the interaction of GID4 with its degron peptide (PGLW) in the presence of the test compounds. A truncated version of GID4 (Uniprot ID: Q81VV7, residues 124-289) with a 6*His at its C-terminus was used in this assay. Tetrapeptide, PGLW, was synthesized and tagged with an additional lysine labeled with biotin at its sidechain.
GID4 competitive binding assays were performed in a 384-well plate at 4° C. in a 20 μL reaction volume. Briefly, 24 nM GID4 (final concentration) proteins were pre-incubated with 48 nM biotinylated degron peptide (final concentration) in an assay buffer containing 20 mM HEPES, pH 7.5, 100 mM NaCl, 1 mM DTT, 0.1% Tween-20, and 0.05% BSA in the presence of the test compound in 2% DMSO (final concentration) at various concentrations for 2 h. 5 ug/ml Streptavidin ALphaScreen donor beads and 5 ug/ml nickel chelate (Ni-NTA) ALphaScreen acceptor beads (PerkinElmer, 6760619C) (final concentrations) were then added to the mixture. After an incubation of 1 h at 4° C., the fluorescent signals were obtained on the EnVision® 2105 Multilabel Plate Reader (PerkinElmer).
Raw ALphaScreen data were converted to a percentage of inhibition (relative to DMSO) using the following equations: […]
For a given test compound concentration X:
Signal (X)=Signal (GID4 & peptide & compound)−Signal (GID4 & buffer & compound)
Percentage of inhibition at concentration X=[1−Signal(X)/Signal (DMSO)]*100% b)
The IC50 values were determined by nonlinear regression of plots of [inhibitor] vs. percentage of inhibition with variable slope.
Table 3 summarizes the inhibition of binding between GID4 and degron peptide with compounds of the present disclosure. Compounds were ranked into bins as follows for IC50: A indicates <500 nM; B indicates 500 nM-5000 nM; C indicates >5000 nM.

SMILES	IC50 [nM]
CNc1nc(C(C)C)cc(N2CCNC(c3ccccc3Br)C2)n1 (single isomer, unassigned) [Compound 153, R or S-4-(3-(2-bromophenyl)piperazin-1-yl)-6-isopropyl-N-methylpyrimidin-2-amine]	500 to 5000
CC(C)c1cc(N2Cc3ccnn3C(c3ccccc3Br)C2)nc(N)n1 (centres unmarked) [Compound 2, 4-(7-(2-bromophenyl)-6,7-dihydropyrazolo[1,5-a]pyrazin-5(4H)-yl)-6-isopropylpyrimidin-2-amine]	500 to 5000
Nc1nc(N)c(Cl)c(N2CCNC(c3ccccc3Br)C2)n1 (centres unmarked) [Compound 68, 6-(3-(2-bromophenyl)piperazin-1-yl)-5-chloropyrimidine-2,4-diamine]	> 5000
CNc1cc(N2CCCC(c3cnc4ccccn34)C2)nc(NC)n1 (racemic) [Compound 124, (R/S)-6-(3-(imidazo[1,2-a]pyridin-3-yl)piperidin-1-yl)-N2,N4-dimethylpyrimidine-2,4-diamine]	500 to 5000
CNc1nc(N)cc(N2CCCC(c3ccccc3Br)C2)n1 (centres unmarked) [Compound 85, 6-(3-(2-bromophenyl)piperidin-1-yl)-N^2-methylpyrimidine-2,4-diamine]	500 to 5000
Nc1nc(N2CCO[C@@H](c3ccccc3Br)C2)c2[nH]ccc2n1 (racemic) [Compound 47, (S/R)-4-(2-(2-bromophenyl)morpholino)-5H-pyrrolo[3,2-d]pyrimidin-2-amine]	500 to 5000
CC(C)c1nc(N)cc(N2CCNC(c3ccccc3Br)C2)n1 (single isomer, unassigned) [Compound 76, (R/S)-6-(3-(2-bromophenyl)piperazin-1-yl)-2-isopropylpyrimidin-4-amine]	< 500
CNC(=O)c1ccc2nnc(C3CCCN(c4cc(C(C)C)nc(N)n4)C3)n2c1 (centres unmarked) [Compound 166, 3-(1-(2-amino-6-isopropylpyrimidin-4-yl)piperidin-3-yl)-N-methyl-[1,2,4]triazolo[4,3-a]pyridine-6-carboxamide]	> 5000
CC(=O)N1CCN(c2cc(N)nc(NC3CC3)n2)CC1c1ccccc1Br (centres unmarked) [Compound 52, 1-(4-(6-amino-2-(cyclopropylamino)pyrimidin-4-yl)-2-(2-bromophenyl)piperazin-1-yl)ethan-1-one]	500 to 5000
CNc1cc(N2CCN(C)[C@H](c3ccccc3Br)C2)nc(N)n1 (stereo in doubt) [Compound 154]	500 to 5000
CC(C)c1cc(N2CCNC(c3csc4ccccc34)C2)nc(N)n1 (centres unmarked) [Compound 162, 4-(3-(benzo[b]thiophen-3-yl)piperazin-1-yl)-6-isopropylpyrimidin-2-amine]	500 to 5000
CN1CCN(c2cc(NC3CC3)nc(N)n2)CC1c1ccccc1Br (centres unmarked) [Compound 101, 6-(3-(2-bromophenyl)-4-methylpiperazin-1-yl)-N4-cyclopropylpyrimidine-2,4-diamine]	< 500
CN(C)CCNC(=O)c1ccc(-c2cc(O)c3ncncc3c2)cc1 [Compound 270, N-(2-(dimethylamino)ethyl)-4-(8-hydroxyquinazolin-6-yl)benzamide]	< 500
CN(C)CCNC(=O)c1c2cc(-c3ccc4ccnc(N)c4c3)ccc2nn1C [Compound 360, 5-(1-aminoisoquinolin-7-yl)-N-(2-(dimethylamino)ethyl)-2-methyl-2H-indazole-3-carboxamide]	> 5000
CN(C)CCCNC(=O)c1c(Cl)cc(-c2cc(O)c3ncccc3c2)cc1Cl [Compound 318, 2,6-dichloro-N-(3-(dimethylamino)propyl)-4-(8-hydroxyquinolin-6-yl)benzamide]	< 500
CN(C)CCNC(=O)c1n[nH]c2ccc(-c3ccc4ccnc(N)c4c3)cc12 [Compound 341, 5-(1-aminoisoquinolin-7-yl)-N-(2-(dimethylamino)ethyl)-1H-indazole-3-carboxamide]	< 500
CN(C)CCCNC(=O)c1ccc(-c2cc(O)c3c(c2)CCCN3)cc1 [Compound 284, N-(3-(dimethylamino)propyl)-4-(8-hydroxy-1,2,3,4-tetrahydroquinolin-6-yl)benzamide]	> 5000

Source: patent publication US20240132464A1, “HETEROCYCLIC COMPOUNDS AS E3 LIGASE INHIBITORS” (Accutar Biotechnology Inc., priority 2022, published 2024)
